Laboratory results reported in patent US20150191606A1, “USE OF VANADIUM-CONTAINING PARTICLES AS A BIOCIDE” (priority 2012, published 2015).

B1: wild-type V-CPO from C. inaequalis: wild-type vanadium chloroperoxidase from C. inaequalis (protein, UniProt P49053 1-609, looked up)
Vanadium chloroperoxidase: MGSVTPIPLPKIDEPEEYNTNYILFWNHVGLELNRVTHTVGGPLTGPPLSARALGMLHLAIHDAYFSICPPTDFTTFLSPDTENAAYRLPSPNGANDARQAVAGAALKMLSSLYMKPVEQPNPNPGANISDNAYAQLGLVLDRSVLEAPGGVDRESASFMFGEDVADVFFALLNDPRGASQEGYHPTPGRYKFDDEPTHPVVLIPVDPNNPNGPKMPFRQYHAPFYGKTTKRFATQSEHFLADPPGLRSNADETAEYDDAVRVAIAMGGAQALNSTKRSPWQTAQGLYWAYDGSNLIGTPPRFYNQIVRRIAVTYKKEEDLANSEVNNADFARLFALVDVACTDAGIFSWKEKWEFEFWRPLSGVRDDGRPDHGDPFWLTLGAPATNTNDIPFKPPFPAYPSGHATFGGAVFQMVRRYYNGRVGTWKDDEPDNIAIDMMISEELNGVNRDLRQPYDPTAPIEDQPGIVRTRIVRHFDSAWELMFENAISRIFLGVHWRFDAAAARDILIPTTTKDVYAVDNNGATVFQNVEDIRYTTRGTREDPEGLFPIGGVPLGIEIADEIFNNGLKPTPPEIQPMPQETPVQKPVGQQPVKGMWEEEQAPVVKEAP

Legend:
[1] = system: E. coli; test: E. coli growth inhibition test, OD at 595 nm; type: cell-based
Experimental: Overnight cultures of E. coli cells (OneShot® Chemically Competent E. Coli, Cat. No. C4040-10, Invitrogen) in LB media (Cat. No. X968.2, Carl-Roth, Germany) were initially done. For the growth inhibition tests cultures were prepared by initially dispersing VO(acac)2 (Sigma Aldrich, 0.08 mg/ml) in 5 ml LB medium to which KBr (1 mM) and H2O2 (100 μM) were added. To start the culture 20 μl of the overnight E. coli stock was added. The cultures were kept at 37° C. with agitation, and the OD was measured at 595 nm at different time points until 180 min (beginning of stationary phase). As controls either only VO(acac)2 or only H2O2/Br^− was added to the cultures in the concentrations given above. For comparative purposes the same assay was done with V2O5 nanowires (Example 1) in the same concentration range as VO(acac)2 (0.08 mg/ml).

[2] = system: E. coli; test: Biocidal rosine paint formulations on steel plates, DAPI fluorescence, qualitative; type: cell-based; settings: Br- 1 mM, H2O2, 3 days at 37° C.
Experimental: A self-polishing rosine formulation was prepared as follows: 22 g of Rosine/Kolophonium (Aldrich) was mixed with 8 g Xylene (Aldrich) and stirred 45 min until well dissolved. Under continuous stirring 0.4 g Thixatrol Max (Elementis) and 1.5 g Bentone SD 1 (Elementis) were added and stirred for at least 5 min. Under continuous stirring 10 g zinc oxide (Aldrich) [optional], 9 g iron oxide red (Aldrich) [optional], 15 g talcum (Aldrich), ×g of biocide and 10-×g of barium sulfate as a filler were added, and the whole mixture was dispersed for at least 15 min at 600-900 rpm. Under stirring 8 g Xylene (Aldrich), 6.7 g Hordaflex LC 50 (Leuna-Tenside) and 8 g petrol 140/180 (Merck) were added.
Steel plates of 2×2 cm were painted directly with no previous treatment with said rosine formulation by brushing and drying for 3 days at room temperature. No surface characterization was performed. […]
After incubation the substrates were gently washed with LB media and PBS buffer. Bacterial cells were stained with […] (DAPI, 1 mg/ml), and fluorescence analysis was performed using an Olympus AHBT3 light microscope together with an AH3-RFC reflected light fluorescence attachment. The presence of bacterial colonies was easily detected by the presence of bright blue “dots” or “clusters”. […]

[3] = molecular target: V-CPO from C. inaequalis (Curvularia inaequalis, UniProt P49053, L241V/P395D/T343A); settings: cited from earlier work
Chain of V-CPO from C. inaequalis (P49053 whole entry L241V/T343A/P395D): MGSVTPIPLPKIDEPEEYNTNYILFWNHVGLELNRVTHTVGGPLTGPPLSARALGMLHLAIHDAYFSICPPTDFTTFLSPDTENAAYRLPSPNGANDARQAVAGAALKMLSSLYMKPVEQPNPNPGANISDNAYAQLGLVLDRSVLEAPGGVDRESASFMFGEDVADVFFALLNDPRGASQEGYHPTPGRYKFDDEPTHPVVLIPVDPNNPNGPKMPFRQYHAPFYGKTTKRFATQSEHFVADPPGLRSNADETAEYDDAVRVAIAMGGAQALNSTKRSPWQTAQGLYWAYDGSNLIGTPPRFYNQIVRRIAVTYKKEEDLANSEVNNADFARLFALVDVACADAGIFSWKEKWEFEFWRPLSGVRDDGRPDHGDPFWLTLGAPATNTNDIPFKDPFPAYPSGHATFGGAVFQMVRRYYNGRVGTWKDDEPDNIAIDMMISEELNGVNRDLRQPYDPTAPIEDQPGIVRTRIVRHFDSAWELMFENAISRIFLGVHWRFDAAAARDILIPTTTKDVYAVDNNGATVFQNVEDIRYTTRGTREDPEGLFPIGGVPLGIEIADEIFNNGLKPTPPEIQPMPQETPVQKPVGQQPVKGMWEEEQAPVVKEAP

Molecule	Decay in E. coli growth (%) ([1]; 0.08 mg/ml, KBr 1 mM, H2O2 100 μM as named in sample, 180 min)	antimicrobial activity by itself ([1]; without H2O2/Br-)	adherence of E. coli to painted surface ([2]; 0.5% biocide in dry film)	adherence of E. coli to painted surface ([2]; 10% biocide in dry film)	optimal pH [3]
Vanadyl acetylacetonate [VO(acac)2]	6%	no relevant antimicrobial activity	inhibited the adhesion of E. coli	inhibited the adhesion of E. coli	–
B1	–	–	–	–	5.5
